What was measured:
pERK = test: Phosphoprotein kinetic profiles in bone marrow samples from healthy donors; type: cell-based, human; conditions: 100 μM U0126 pre-incubation; healthy donor CD34^+, CD117^+ cells
Description: (§1) Phosphoprotein kinetic profiles were analyzed in bone marrow aspiration samples from nine healthy, adult donors (i.e., normal bone marrow or NBM) and from five AML patients. Samples from healthy donors included 5 males and 4 females, ranging in age from 26 to 49 years. Approximately 10 to 20 mL of bone marrow (BM) samples were collected from the posterior iliac crest of the volunteers using IRB approved protocols. The BM samples were filtered using a 40 μm Nylon cell strainer to remove marrow particles and the white blood cell concentration determined using a blood analyzer. […] The samples were immediately used for subsequent experimentation.
(§2) To assess the signal transduction response after growth factor simulation, 100 to 200 μL of processed samples including about 2×10^6 WBC/100 μL were added to tubes and incubated at 37° C. for 30 minutes. For inhibition experiments, cells were incubated with 100 μM U0126, 1 μg/mL rapamycin, or both for at least 20 minutes prior to cytokine addition and in all cases for 30 min prior to formaldehyde addition. […] After stimulation the cells were immediately fixed by the addition of formaldehyde to a final concentration of 4% v/v and incubated for 10 minutes at room temperature. Following fixation, red blood cells were lysed by the addition of TRITON-X/PBS solution (0.1% v/v final concentration Triton X-100) supplemented with a 1 x phosphatase inhibitor cocktail (PIC; final concentrations: 0.2 mM sodium orthovanadate, 2 mM sodium pyrophosphate decahydrate, 2 mM [3-glycerophosphate, and 10 mM sodium fluoride) and incubation at 37° C. for 20 minutes. The incubated solution was chilled by the addition of ice-cold Wash Buffer (final concentration 1×PBS and either 4% bovine serum albumin (BSA) or 4% heat-inactivated fetal bovine serum (FBS), supplemented with 1×PIC), and the samples were centrifuged at 300 g for 6 minutes at 4° C.). If the lysis was incomplete, samples were retreated with 0.1% Triton X-100 at 37° C. for 10 to 20 minutes. After removal of the supernatant, cells were washed twice in ice-cold Wash Buffer supplemented with 1×PIC and permeabilized by the addition of pre-chilled 80% methanol while simultaneously vortexing the tube and incubated on ice for 10 minutes. Methanol was removed by centrifugation, the pellet was washed with ice-cold 1×PBS, and non-specific binding was blocked by the addition of ice-cold Wash Buffer supplemented with 1×PIC and incubation at 4° C. for a minimum of 30 minutes.
(§3) To stain cells with fluorescent conjugated monoclonal antibodies, the incubated solution was centrifuged to remove the supernatant and the pellet was incubated for 60 minutes at 4° C. with an antibody staining solution including 0.25 μg to 0.50 μg of pS6-Pacific Blue, pERK-ALEXA 488, pSTAT5-ALEXA 647, CD34-PE, CD45-PerCP, and CD117-PC7. Samples were washed three times with ice-cold Wash Buffer supplemented with 1×PIC, resuspended in 0.5 mL ice-cold Wash Buffer supplemented with 1×PIC including 0.5 μg/mL DAPI, and analyzed by flow cytometryusing a BD LSR II Flow Cytometer, equipped with a High Throughput Sampler (HTS).
(§4) First, doublets, aggregates, and debris were excluded by gating on single cell events in the SSC-Area versus SSC-Height histogram. Then, in events passing through this gate, debris near the origin of the FSC-Area versus SSC-Area plot (gray in FIG. 4A) was excluded by drawing a gate around an area encompassing, primarily, lymphocytes, monocytes, and granulocytes (LMG, black in FIG. 4A). Next, in cells passing through the LMG gate, the blast region (circle in FIG. 4B) was identified in the CD45 versus SSC-Area histogram (FIG. 4B). From this blast population, CD34+, CD117+ cells were identified in the CD34 versus CD117 plot (boxed area in FIG. 4C).

pS6 = test: as above; type: cell-based, human; conditions: at 4 min; 100 μM U0126
Description: as §1, §2, §3, §4

Structure (SMILES): N#CC(=C(/N)Sc1ccccc1N)/C(C#N)=C(\N)Sc1ccccc1N [U0126, reference compound]
- Inhibition of SCF-stimulated ERK phosphorylation (pERK): completely inhibited
- Inhibition of SCF-stimulated S6 phosphorylation (pS6): partially blocked

Source: patent US20130210034A1, “COMPLEX PHOSPHOPROTEIN ACTIVATION PROFILES” (BECKMAN COULTER, INC., priority 2005, published 2013)
